Here are results for eight substances from patent publication US7214766B2 (priority 1998, dated 2007).

Read-outs that look alike come from different tables or passages of the source. No end group written: not given here.

Data set [1] deals with proteases present in whole cell extract (WCE). As to the kind of experiment: Protection of Magainin 2 from degradation by WCE (Magainin 2 mixed with Rev4). It is filed as in vitro ADME, Kentucky 14 tobacco. Conditions: in Rev4 + Magainin 2 Mix. How it is done: (§1) Whole cell extract (WCE) was prepared by grinding one gram of Kentucky 14 tobacco leaf tissue in liquid nitrogen, followed by extraction with 3 mL of 100 mM Tris-HCl buffer, pH 7.5, 50 mM NaCl. The mixture was clarified by spinning in a microcentrifuge (14,000 r.p.m., 5 minutes). The supernatant (WCE) was kept frozen as aliquots at −80° C. until required for an assay. Fifty micrograms of each peptide was incubated with different amounts of WCE in 50 mM Tris-HCl buffer, pH 7.5, total volume 50 microliters, for one hour at 37° C. The reaction was stopped by adding 1% trifluoroacetic acid (TFA). A sample of the reaction mixture (20 μL) was injected onto a Vydac C4 column (4.6×250 mm) in a Waters HPLC system with 515 pumps, 486 detector and Millenium software. The sample was eluted with a gradient of 0.1% TFA in water to 60% acetonitrile in 0.1% TFA. The area of the peak corresponding to the undigested peptide was integrated and compared with the equivalent peak from a 0% WCE control.
(§2) Assays for WCE protease degradation were performed as described in Example 8 except that one of the samples represented Magainin 2 that was mixed with Rev4 before the addition of WCE. The amounts of Magainin 2 and Rev4 remaining in the mixture were determined by HPLC as described for Examples 7 and 8.

For data set [2] the test system is unchanged. As to the kind of experiment: Stability of peptides to proteases in whole cell extract (WCE), HPLC. It is filed as in vitro ADME, Kentucky 14 tobacco. Conditions: peptide alone. How it is done:
as §1, §2

Assay in data set [3]: as above
It is filed as in vitro ADME, Kentucky 14 tobacco. Conditions: other tissue homogenate, peptide alone, read-out: % Peptide Remaining Intact after 1 Hr. As for the experimental part: as §1, §2

For the next data set, the system named is Pseudomonas aeruginosa. Conditions: Falla and Hancock 1997; cited from earlier work.
In the next data set the test system is E. coli. Conditions: Falla and Hancock 1997; cited from earlier work.
The subject of a further data set is Staphylococcus aureus. Conditions: Falla and Hancock 1997; cited from earlier work.
The subject of another data set is Candida albicans. Conditions: Falla and Hancock 1997; cited from earlier work.
Another data set relates to Peronospora tabacina. As to the kind of experiment: Tobacco blue mold spore germination assay. It is filed as cell-based. Conditions: for % Germination (mean +/− sem): final concentration of 2 μg/mL, control 76.6 +/− 11.2; for % Control: germination as % of no-peptide control, 2 μg/mL; for antifungal activity (in words): refers to EXAMPLE 12. As for the experimental part: Tobacco blue mold (Peronospora tabacina) was used to compare the antifungal activity of Rev4 with that of MYP30. Spores of Peronospora tabacina were harvested from infected tobacco leaf with sterile water and washed three times. The spore suspension was diluted to 2,000 spores per mL. Peptide solution (2 μL) was added to spore suspension (48 μL) in a 96-well microtiter plate. After incubation in the dark at room temperature for 24 hours, the number of germinated spores was determined microscopically.
The peptides described as SEQ. ID Nos. 4, 5, 6, 7 and 8 in Examples 1, 3, 4, 5 and 6 were tested for antifungal activity as described in Example 11.

The target of the next data set is T1, Chymotrypsin (Bos taurus, UniProt P00766).
T1 construct: purchased
As to the kind of experiment: Inhibition of protease digestion of fluorescent labeled casein: chymotrypsin. It is filed as biochemical. Conditions: for Chymotrypsin Activity (Fluorescence Units) Mean: no-peptide control 375. As for the experimental part: (§3) The ability of Rev4 to inhibit four different classes of proteases was tested using fluorescent labeled casein as substrate under the following conditions:
(§4) Each protease was incubated with substrate (5 μg/mL fluorescent labeled casein; Molecular Probes Inc., Eugene, Oreg.) and peptide in a total volume of 200 μL in a 96-well microtiter plate. Before use, papain was activated with cysteine (Arnon, 1970, Methods in Enzymology 19:226–44). After incubation at room temperature for one hour, fluorescence due to casein digestion was measured in a Luminescence Spectrometer (LS50B, Perkin Elmer Ltd., England) with an excitation wavelength of 505 nm and an emission wavelength of 513 nm. The blank control contained the substrate, buffer and peptide but lacked the protease.
The peptides described in EXAMPLE 12 were tested for their effects on the action of chymotrypsin on casein using the methods described in EXAMPLE 10.

Data set [4] has as its system Alternaria alternata f.sp. lycopersici. As to the kind of experiment: Minimum concentration to completely inhibit spore germination, Alternaria. The data set is classed as cell-based. Conditions: 5,000 spores per mL, triplicate. The text has this:
(§5) The antifungal activity of Rev4 and related peptides was also compared using two tomato pathogens, Verticillium dahliae racel and Alternaria alternata f.sp. lycopersici. Spores were harvested from pure cultures grown on V8 medium, diluted to 5,000 spores per mL, and tested against dilution series of peptides in 96-well plates as described in U.S. Pat. No. 5,424,395.

Data set [5] deals with Verticillium dahliae racel. The experiment in a line: Minimum concentration to completely inhibit spore germination, Verticillium. It is filed as cell-based. Conditions: 5,000 spores per mL, triplicate.
Text: as §5

The target in a further data set is T2, Papain (Carica papaya, UniProt P00784).
T2 construct: purchased
T2 sequence (P00784 134-345): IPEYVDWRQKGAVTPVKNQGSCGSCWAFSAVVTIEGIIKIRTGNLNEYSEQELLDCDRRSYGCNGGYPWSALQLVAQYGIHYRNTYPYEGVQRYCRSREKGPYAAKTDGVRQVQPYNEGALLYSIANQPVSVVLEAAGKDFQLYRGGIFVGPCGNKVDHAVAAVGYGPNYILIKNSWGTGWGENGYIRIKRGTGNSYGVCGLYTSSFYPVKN
As to the kind of experiment: Inhibition of protease digestion of fluorescent labeled casein: papain. The data set is classed as biochemical. Conditions: pH 6.2, papain 0.01 mg/mL, pH6.2, read-out: % Inhibition of Proteolysis. As for the experimental part:
as §3, §4

In a further data set the target is T3, Pepsin (Sus scrofa, UniProt P00791).
T3 construct: purchased
T3 sequence (P00791 60-385): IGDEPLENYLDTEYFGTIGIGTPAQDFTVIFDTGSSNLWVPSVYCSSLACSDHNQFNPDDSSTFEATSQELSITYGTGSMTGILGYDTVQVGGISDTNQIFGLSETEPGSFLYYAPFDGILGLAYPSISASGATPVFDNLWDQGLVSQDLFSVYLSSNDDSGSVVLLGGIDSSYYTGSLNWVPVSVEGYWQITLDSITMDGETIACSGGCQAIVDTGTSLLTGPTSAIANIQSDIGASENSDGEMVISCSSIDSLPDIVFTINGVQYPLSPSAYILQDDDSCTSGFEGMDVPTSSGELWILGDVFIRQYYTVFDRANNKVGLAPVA
The experiment in a line: Inhibition of protease digestion of fluorescent labeled casein: pepsin. The data set is classed as biochemical. Conditions: pH 2, pepsin 0.01 mg/mL, pH2.0, read-out: % Inhibition of Proteolysis. How it is done:
as §3, §4

Data set [6] concerns proteases in the intercellular fluid of plant leaves. Conditions: cited from earlier work.

What is called fraction remaining is what is left of the initial amount, in per cent. Take “H-GIGKFLHSAKKFGKAFVGEIMNS-OH [Magainin 2, reference compound]”: the “% Peptide Remaining Intact after 1 Hr.” value amounted to 89.7% in data set [1] (15% WCE); 87.6% in data set [1] (30% WCE); 73.1% in [1] (60% WCE); 56.3% in [1] (90% WCE); 0.4% in data set [2] (45% WCE); 0.3% in data set [2] (60% WCE). Besides, the share remaining at 1 h, 1 mg/mL in data set [3] (pH 7.5, 15% WCE) was 10.9%; in data set [3] (pH 7.5, 30% WCE), 0.3%; in [3] (pH 7.5, 90% WCE) it was 0.4%.

With “ILKKWPWWPWRR [CP-11, synthetic peptide based on indolicidin (Falla and Hancock)]”, the “activity against Pseudomonas aeruginosa relative to indolicidin (in words)” value in the data set on Pseudomonas aeruginosa was “better activity”. For the same substance, in the data set on E. coli, the “activity against E. coli relative to indolicidin (in words)” value is “better activity”. In addition, the “activity against Staphylococcus aureus relative to indolicidin (in words)” value in the data set with Staphylococcus aureus is listed as “reduced activity”. In addition, the “activity against Candida albicans relative to indolicidin (in words)” value in the data set with Candida albicans was “better activity”.

With “Ile Leu Lys Gly Phe Pro Gly Phe Pro Arg Arg Lys (ILKGFPGFPRRK-NH2) [SEQ. ID NO. 8, derivative of indolicidin in which Trp residues were replaced by Phe and a Pro residue was deleted]”, in the data set with Peronospora tabacina, the “% Germination (mean +/− sem)” value is 17.3 +/− 3.5%, the “% Control” value was determined as 23% and the “antifungal activity (in words)” value is on record as “had retained antifungal activity”. Moreover, the “protection of fluorescent-labeled casein from chymotrypsin (in words)” value (from here on “protection of fluorescent-labeled casein”) with Chymotrypsin is “did not have this protective effect”. For the same substance, in the data set with Chymotrypsin (peptide 5 μg/mL), the “Chymotrypsin Activity (Fluorescence Units) Mean” value (“Chymotrypsin Activity” for short) was found to be 385 Fluorescence Units. Besides, the “Chymotrypsin Activity” value in the data set with Chymotrypsin (peptide 20 μg/mL) turned out to be 321 Fluorescence Units.

As for “Ile Leu Pro Phe Lys Phe Pro Phe Phe Pro Phe Arg Arg (ILPFKFPFFPFRR-NH2) [SEQ. ID NO. 7, indolicidin in which the Trp residues were replaced with Phe]”, the “minimum concentration required to completely inhibit spore germination for at least 48 hours” value in data set [4] stood at 100 µg/mL. Besides, in the data set on Peronospora tabacina, the “% Germination (mean +/− sem)” value was 8.8 +/− 5.4%, the “% Control” value amounted to 11% and the “antifungal activity (in words)” value is on record as “had retained antifungal activity”. In addition, the “protection of fluorescent-labeled casein” value with Chymotrypsin is given as “did not have this protective effect”. Further, the “Chymotrypsin Activity” value in the data set with Chymotrypsin (peptide 5 μg/mL) amounted to 386 Fluorescence Units. In addition, in the data set with Chymotrypsin (peptide 20 μg/mL), the “Chymotrypsin Activity” value is on record as 385 Fluorescence Units. The “minimum concentration required to completely inhibit spore germination for at least 48 hours” value in [5] came out at 50 µg/mL.

In general, inhibition refers to the percentage by which the read-out fell short of the control. As to “RRWPWWPWKWPLI-NH2 [Rev4, Arg Arg Trp Pro Trp Trp Pro Trp Lys Trp Pro Leu Ile]”, the inhibition at 2.5 µg/mL at Chymotrypsin (pH 8, Rev4 2.5 μg/ml, chymotrypsin 0.01 mg/mL, pH8.0, read-out: % Inhibition of Proteolysis) amounted to 16%; on Papain (Rev4 2.5 μg/ml), 29%. Further, the inhibition at 5 µg/mL is 42% on Chymotrypsin (pH 8, Rev4 5 μg/ml, chymotrypsin 0.01 mg/mL, pH8.0, read-out: % Inhibition of Proteolysis) and 72% on Papain (Rev4 5 μg/ml). Moreover, the inhibition at 10 µg/mL on Chymotrypsin (pH 8, Rev4 10 μg/ml, chymotrypsin 0.01 mg/mL, pH8.0, read-out: % Inhibition of Proteolysis) turned out to be 75%; at Papain (Rev4 10 μg/ml) it was 93%. Further, the inhibition at 20 µg/mL on Chymotrypsin (pH 8, Rev4 20 μg/ml, chymotrypsin 0.01 mg/mL, pH8.0, read-out: % Inhibition of Proteolysis) worked out at 97%; at Papain (Rev4 20 μg/ml), 99%. Further, the inhibition at 25 µg/mL at Pepsin (Rev4 25 μg/ml) worked out at 3%. Also, the inhibition at 50 µg/mL at Pepsin (Rev4 50 μg/ml) amounted to 0%. Further, at Pepsin (Rev4 100 μg/ml), the inhibition at 100 µg/mL amounted to 0%.

Regarding “RRWPWWPWKWPLIGGGYDPAPPPPPP [SEQ. ID NO. 6, Rev4 with a C-terminal extension of 13 amino acids]”, the “minimum concentration required to completely inhibit spore germination for at least 48 hours” value in data set [4] is 50 µg/mL; in data set [5] it was 23 µg/mL. In addition, in the data set with Peronospora tabacina, the “% Germination (mean +/− sem)” value is listed as 5.7 +/− 9.8%. In addition, the “% Control” value in the data set with Peronospora tabacina came to 7%. The “protection of fluorescent-labeled casein” value in the data set with Chymotrypsin is “protected fluorescent-labeled casein from the action of chymotrypsin”. Further, the “Chymotrypsin Activity” value stood at 212 Fluorescence Units in the data set with Chymotrypsin (peptide 5 μg/mL) and 45 Fluorescence Units with Chymotrypsin (peptide 20 μg/mL).

As for “Ser Arg Arg Trp Pro Trp Trp Pro Trp Lys Trp Pro Leu Ile (SRRWPWWPWKWPLI-OH) [SEQ. ID NO. 5, analog of Rev4 in which an extra Ser was added to the N-terminus]”, in the data set with Peronospora tabacina, the “% Germination (mean +/− sem)” value is 6.8 +/− 6.3% and the “% Control” value came to 9%. Besides, the “protection of fluorescent-labeled casein” value with Chymotrypsin is “protected fluorescent-labeled casein from the action of chymotrypsin”. Moreover, the “Chymotrypsin Activity” value with Chymotrypsin (peptide 5 μg/mL) is given as 162 Fluorescence Units. Further, the “Chymotrypsin Activity” value with Chymotrypsin (peptide 20 μg/mL) came out at 44 Fluorescence Units. For the same substance, the “minimum concentration required to completely inhibit spore germination for at least 48 hours” value in [5] is 50 µg/mL.

For “cecropin B: antimicrobial peptide cecropin B (KWKVFKKIEKMGRNIRNGIVKAGPAIAVLGEAKAL; ends and bridges not checked; UniProt P01508 27-61, looked up)”, the “degradation / stability against proteases of plant intercellular fluid (in words)” value in data set [6] is given as “rapidly degraded”.
